Source: patent US7964591B2, “Pyridazine derivatives and their use as therapeutic agents” (Novartis Pharma AG, priority 2003, dated 2011)
Marks after values point to notes of the source that are not given here.

How the values were obtained:
[1] = target: T1, stearoyl-CoA desaturase (SCD) (Mus musculus, UniProt P13516); experiment: Stearoyl-CoA desaturase inhibition using mouse liver microsomes (HTS microsomal assay, IC50 follow-up); conditions: % SCD enzyme activity remaining at 10 μM test compound
T1 sequence (P13516 1-355): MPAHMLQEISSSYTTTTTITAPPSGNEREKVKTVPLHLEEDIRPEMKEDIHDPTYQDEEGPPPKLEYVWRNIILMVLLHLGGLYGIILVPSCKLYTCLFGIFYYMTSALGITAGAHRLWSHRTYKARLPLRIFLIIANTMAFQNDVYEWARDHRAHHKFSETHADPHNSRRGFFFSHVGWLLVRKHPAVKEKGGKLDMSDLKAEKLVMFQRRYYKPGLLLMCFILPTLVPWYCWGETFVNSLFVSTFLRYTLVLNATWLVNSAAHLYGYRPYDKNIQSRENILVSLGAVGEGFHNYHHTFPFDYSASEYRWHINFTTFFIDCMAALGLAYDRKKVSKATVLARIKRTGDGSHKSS
Description: Livers are immediately rinsed with cold 0.9% NaCl solution, weighed and minced with scissors. All procedures are performed at 4° C. unless specified otherwise. Livers are homogenized in a solution (1:3 w/v) containing 0.25 M sucrose, 62 mM potassium phosphate buffer (pH 7.0), 0.15 M KCl, 1.5 mM N-acetyleysteine, 5 mM MgCl2, and 0.1 mM EDTA using 4 strokes of a Potter-Elvehjem tissue homogenizer. The homogenate is centrifuged at 10,400×g for 20 min to eliminate mitochondria and cellular debris. The supernatant is filtered through a 3-layer cheesecloth and centrifuged at 105,000×g for 60 min. The microsomal pellet is gently resuspended in the same homogenization solution with a small glass/teflon homogenizer and stored at −70° C. The absence of mitochondrial contamination is enzymatically assessed. The protein concentration is measured using bovine serum albumin as the standard.
The tubes are vortexed vigorously and after 15 min incubation in a shaking water bath (37° C.), the reactions are stopped and fatty acids are analyzed.
Fatty acids are analyzed as follows: The reaction mixture is saponified with 10% KOH to obtain free fatty acids which are further methylated using BF3 in methanol. […] Fatty acid methyl esters are separated isocratically with acetonitrile/water (95:5 v:v) at a flow rate of 1 mL/min and are identified by comparison with authentic standards.
The compounds are analyzed with an HTS microsomal assay. The activities are defined in terms of % SCD enzyme activity remaining at the selected concentration (e.g., 10 μM) of the test compounds.

[2] = tested on: sebaceous glands; experiment: Topical LCF369 on sebaceous glands of NMRI mice: minimal effective concentration; assay type: in vivo, female Crl:NMRI mice; conditions: LCF369 1.0% (w/v) twice daily, 7 days, mean (SD), 6 animals
Description: (§1) LCF369 is prepared either in a solution of ethanol/propylene glycol (3/7, v/v) or in topical formulations at 1.0, 0.5 or 0.1% for testing in female Crl:NMRI mice. In general, shaved application sites of approximately 2.5 cm^2 on the back of mice are treated twice daily (once on weekends or at study termination) with 50 μl of the LCF369 preparations. To prevent the animals from potential oral uptake of the epicutaneously applied compounds, they are fitted with ruffs and housed individually. After the last application, the animals are euthanised; the treated sites dissected and prepared for histological sections. Hematoxilin/eosin (HE)-stained 3 μm-thick sections are prepared from formalin-fixed, paraffin-embedded tissue. From each animal, one HE-stained section per site is histomorphometrically examined. The entire sections of approximately 10 mm length are evaluated microscopically (200×) for sebaceous glands. The mean size and mean number (per mm^2 dermis) of sectioned alveolar units of the sebaceous glands are determined in a coded fashion with an image analyzer (Axiovision, Zeiss). For statistical analysis, morphometric data are analyzed with a T-test or Mann-Whitney rank sum test. Frozen tissue sections (5 μm) are used for oil red O (lipid) staining.
LCF369 is tested at 1.0%, 0.5% and 0.1%, groups of 6 mice are treated twice daily for 7 consecutive days. […]

[3] = tested on: sebaceous glands; experiment: Topical LCF369 on sebaceous glands of NMRI mice: minimal treatment period; assay type: in vivo, female Crl:NMRI mice; conditions: for mean size decrease: 1.0% LCF369 twice daily, vs vehicle
Description: as §1
Groups of 4 mice are treated with 1.0% LCF369 twice daily for 2, 4, 6 and 8 days (i.e. up to 16 applications). Control groups remain untreated or are treated with the vehicle alone twice daily for 8 days.

[4] = tested on: sebaceous glands; experiment: Topical LCF369 on sebaceous glands of NMRI mice: duration of action; assay type: in vivo, female Crl:NMRI mice
Description: as §1, with “From each animal, one HE-stained section per site is histomorphometrically examined.” left out, “Frozen tissue sections (5 μm) are used for oil red O (lipid) staining.” left out
A 7-day b.i.d. (twice daily) treatment schedule (except on week ends when the animals were treated once daily) with 1.0% LCF369 is applied to groups of 7 mice which are evaluated on days 8 (one day after the 14th application), 24 and 41. […]

[5] = tested on: sebaceous glands; experiment: Topical LCF369 on sebaceous glands of NMRI mice: evaluation of efficacy; assay type: in vivo, female Crl:NMRI mice
Description: as §1
Groups of 5 mice are treated with 50 μl of 1% or 0.1% LCF369 twice daily (except on weekends, when the animals are treated once daily and on study termination) for 8 days (i.e. 14 applications in total). Four control animals are treated similarly with the vehicle alone. In life, the animals are observed for clinical signs and macroscopic changes of the application sites. One day after the last application, an evaluation is performed. In animals treated with 1.0% LCF369, untreated skin samples distant from the treated sites are also collected in order to assess systemic activity due to percutaneous absorption of LCF369.

[6] = tested on: sebaceous glands; experiment: Topical LCF369 on sebaceous glands of NMRI mice: clinical service form candidates (0.5% formulations); assay type: in vivo, female Crl:NMRI mice
Description: as §1, with “Hematoxilin/eosin (HE)-stained 3 μm-thick sections are prepared from formalin-fixed, paraffin-embedded tissue. From each animal, one HE-stained section per site is histomorphometrically examined.” left out, “Frozen tissue sections (5 μm) are used for oil red O (lipid) staining.” left out
Three different formulations containing 0.5% LCF369 are tested; i) emulsion gel with the penetration enhancer Sepa 09 (batch 92.66.01-ra), ii) emulsion gel without a penetration enhancer (batch 9450-05-Ra), and iii) a formulation containing particulate compound (“follicular targeting formulation”). They are evaluated after 9 or 13 applications.

[7] = LCF369-treated vs vehicle-treated skin

| SMILES | Mouse Microsome 10% remaining @ 10 μM [1] | Number of sebaceous glandular units [2] | mean size decrease ([3]; after 4 days) | mean size decrease ([3]; after 6 days) | mean size decrease ([3]; after 8 days) | Maximum reduction in sizes and numbers of sebaceous glands ([3]; topical application, compared to untreated skin) | atrophogenic effect from LCF369 treatment ([4]; 1% LCF369, on day 24) | atrophogenic effect from LCF369 treatment ([4]; 1% LCF369, on day 41) | atrophogenic effects ([5]; 0.1% LCF369, 8 days) | reduction of sebaceous glands in sizes (fold) ([5]; 1.0% LCF369, 8 days, p<0.01) | differences in numbers and sizes of sebaceous glands at sites distant from the treatments ([5]; 1.0% LCF369, distant sites) | histochemical (HE) staining of treated skin, FIG. 2B [5, 7] | oil red O (lipid) staining of treated skin, FIG. 3B [5, 7] | hyper/parakeratosis and acanthosis in skin sections ([6]; 0.5% LCF369 formulation containing SEPA-9 vs placebo-treated (vehicle-treated) samples) | effect on sebaceous glands ([6]; 0.5% LCF369 formulation containing penetration enhancer SEPA-9) |
| --- | --- | --- | --- | --- | --- | --- | --- | --- | --- | --- | --- | --- | --- | --- | --- |
| O=C(NCCC1CC1)c1ccc(N2CCN(C(=O)Cc3ccccc3C(F)(F)F)CC2)nn1 [6-{4-[2-(2-TRIFLUOROMETHYLPHENYL)ACETYL]PIPERAZIN-1-YL}PYRIDAZINE-3-CARBOXYLIC ACID (2-CYCLOPROPYLETHYL)AMIDE] | 10% | – | – | – | – | – | – | – | – | – | – | – | – | – | – |
| CC(=O)Oc1ccccc1C(=O)N1CCN(c2ccc(C(=O)NCCC3CC3)nn2)CC1 [ACETIC ACID 2-{4-[6-(2-CYCLOPROPYLETHYLCARAMOYL)PYRIDAZIN-3-YL]-PIPERAZINE-1-CARBONYL}PHENYL ESTER] | 46% | – | – | – | – | – | – | – | – | – | – | – | – | – | – |
| O=C(NCCC1CC1)c1ccc(N2CCN(C(=O)c3cc(F)ccc3C(F)(F)F)CC2)nn1 [LCF369, 6-[4-(5-Fluoro-2-trifluoromethylbenzoyl)piperazin-1-yl]pyridazine-3-carboxylic acid (2-cyclopropylethyl)amide] | – | 10.1 (4.0)*** per mm^2 dermis | 35% | 35% | 72% | up to 75% | substantially reduced | almost completely absent | little or no atrophogenic effects | about 1.9 fold | no significant differences | fewer and smaller (atrophic) sebaceous glands | significantly reduced lipids associated with hair shafts | more pronounced | significant atrophy of sebaceous glands |
